Data reported in patent US12291519B2, “2-hydroxycycloalkane-1-carbamoyl” (Idorsia Pharmaceuticals Ltd, priority 2019, dated 2025).

Key:
human Gal-3 (hGal-3) = human Gal-3 (hGal-3) (Homo sapiens (Human), UniProt P17931); assay: Competitive binding assay: biotinylated hGal-3 binding to microplate-adsorbed asialofetuin (ASF); conditions: Activity on hGal-3; binding of biotinylated hGal-3 to ASF-coated plates; mean values
How it was run: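 Serially diluted compounds competed with biotinylated human Gal-3 for binding to plate-adsorbed asialofetuin over 3 h at 4 °C. Bound Gal-3 was detected with streptavidin-peroxidase (80 ng/mL, 1 h, 4 °C) and ABTS substrate. IC50 values are means of several measurements.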

human Gal-1 (hGal-1) = assay: Competitive binding assay: biotinylated hGal-1 binding to microplate-adsorbed asialofetuin (ASF); conditions: Activity on hGal-1; binding of biotinylated hGal-1 to ASF-coated plates; mean values
human Gal-1 (hGal-1), sequence (P09382 2-135 limits assumed): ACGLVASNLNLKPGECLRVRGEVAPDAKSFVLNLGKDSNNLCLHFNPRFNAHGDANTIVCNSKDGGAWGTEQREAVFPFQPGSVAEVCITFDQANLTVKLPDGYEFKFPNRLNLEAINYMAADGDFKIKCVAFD
How it was run: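 Biotinylated hGal-1 (300–1000 ng/mL; optionally a cysteine-free all-serine variant) incubated 3 h at 4 °C with compound on asialofetuin-coated plates, then streptavidin-peroxidase 1 h at 4 °C. ABTS readout at OD 410 nm after 30–45 min; IC50 given as mean of several runs.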

human Gal-3 (hGal-3), sequence (P17931 whole entry): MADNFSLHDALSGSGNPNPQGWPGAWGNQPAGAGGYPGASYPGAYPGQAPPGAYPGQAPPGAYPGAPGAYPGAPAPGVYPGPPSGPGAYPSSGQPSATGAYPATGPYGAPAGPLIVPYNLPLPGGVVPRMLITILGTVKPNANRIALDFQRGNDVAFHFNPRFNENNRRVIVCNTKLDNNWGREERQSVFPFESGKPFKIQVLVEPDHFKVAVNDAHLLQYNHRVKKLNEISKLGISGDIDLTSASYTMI

Structure (SMILES) | IC50 (human Gal-3 (hGal-3)) [µM] | IC50 (human Gal-1 (hGal-1)) [µM]
CO[C@@H]1[C@@H](n2cc(-c3cc(F)c(C)c(F)c3)nn2)[C@@H](O)[C@@H](CO)O[C@H]1C(=O)N(c1cc(Cl)cc(C#N)c1)[C@H]1CCCC[C@@H]1O [Example 159, (2R,3R,4S,5R,6R)-N-(3-chloro-5-cyanophenyl)-4-(4-(3,5-difluoro-4-methylphenyl)-1H-1,2,3-triazol-1-yl)-5-hydroxy-N-((1S,2S)-2-hydroxycyclohexyl)-6-(hydroxymethyl)-3-methoxytetrahydro-2H-pyran-2-carboxamide] | 0.012 | 0.528
CO[C@@H]1[C@@H](n2cc(-c3cc(F)c(C)c(F)c3)nn2)[C@@H](O)[C@@H](CO)O[C@H]1C(=O)N(c1cc(F)cc(C#N)c1)[C@H]1CCCC[C@@H]1O [Example 161, (2R,3R,4S,5R,6R)-N-(3-cyano-5-fluorophenyl)-4-(4-(3,5-difluoro-4-methylphenyl)-1H-1,2,3-triazol-1-yl)-5-hydroxy-N-((1S,2S)-2-hydroxycyclohexyl)-6-(hydroxymethyl)-3-methoxytetrahydro-2H-pyran-2-carboxamide] | 0.025 | 2.17
CO[C@@H]1[C@@H](n2cc(-c3ccc(F)c(F)c3)nn2)[C@@H](O)[C@@H](CO)O[C@H]1C(=O)N(c1cc(Cl)cc(Cl)c1)[C@H]1CCCC[C@@H]1O [Example 162, (2R,3R,4S,5R,6R)-N-(3,5-dichlorophenyl)-4-(4-(3,4-difluorophenyl)-1H-1,2,3-triazol-1-yl)-5-hydroxy-N-((1S,2S)-2-hydroxycyclohexyl)-6-(hydroxymethyl)-3-methoxytetrahydro-2H-pyran-2-carboxamide] | 0.032 | 0.134
CO[C@@H]1[C@@H](n2cc(-c3ccc(Br)c(F)c3)nn2)[C@@H](O)[C@@H](CO)O[C@H]1C(=O)N(c1cc(Cl)cc(Cl)c1)[C@H]1CCCC[C@@H]1O [Example 163, (2R,3R,4S,5R,6R)-4-(4-(4-bromo-3-fluorophenyl)-1H-1,2,3-triazol-1-yl)-N-(3,5-dichlorophenyl)-5-hydroxy-N-((1S,2S)-2-hydroxycyclohexyl)-6-(hydroxymethyl)-3-methoxytetrahydro-2H-pyran-2-carboxamide] | 0.018 | 1.27
CO[C@@H]1[C@@H](n2cc(-c3ccc(Br)c(F)c3)nn2)[C@@H](O)[C@@H](CO)O[C@H]1C(=O)N(c1ccc(F)c(F)c1)[C@H]1CCCC[C@@H]1O [Example 164, (2R,3R,4S,5R,6R)-4-(4-(4-bromo-3-fluorophenyl)-1H-1,2,3-triazol-1-yl)-N-(3,4-difluorophenyl)-5-hydroxy-N-((1S,2S)-2-hydroxycyclohexyl)-6-(hydroxymethyl)-3-methoxytetrahydro-2H-pyran-2-carboxamide] | 0.058 | 1.94
CO[C@@H]1[C@@H](n2cc(-c3ccc(Br)c(F)c3)nn2)[C@@H](O)[C@@H](CO)O[C@H]1C(=O)N(c1cc(Cl)cc(C#N)c1)[C@H]1CCCC[C@@H]1O [Example 165, (2R,3R,4S,5R,6R)-4-(4-(4-bromo-3-fluorophenyl)-1H-1,2,3-triazol-1-yl)-N-(3-chloro-5-cyanophenyl)-5-hydroxy-N-((1S,2S)-2-hydroxycyclohexyl)-6-(hydroxymethyl)-3-methoxytetrahydro-2H-pyran-2-carboxamide] | 0.034 | 0.792
CO[C@@H]1[C@@H](n2cc(-c3cc(F)c(Cl)c(Cl)c3)nn2)[C@@H](O)[C@@H](CO)O[C@H]1C(=O)N(c1cc(Cl)cc(Cl)c1)[C@H]1CCCC[C@@H]1O [Example 166, (2R,3R,4S,5R,6R)-4-(4-(3,4-dichloro-5-fluorophenyl)-1H-1,2,3-triazol-1-yl)-N-(3,5-dichlorophenyl)-5-hydroxy-N-((1S,2S)-2-hydroxycyclohexyl)-6-(hydroxymethyl)-3-methoxytetrahydro-2H-pyran-2-carboxamide] | 0.022 | 1.34
CO[C@@H]1[C@@H](n2cc(-c3cc(F)c(Cl)c(Cl)c3)nn2)[C@@H](O)[C@@H](CO)O[C@H]1C(=O)N(c1ccc(F)c(F)c1)[C@H]1CCCC[C@@H]1O [Example 167, (2R,3R,4S,5R,6R)-4-(4-(3,4-dichloro-5-fluorophenyl)-1H-1,2,3-triazol-1-yl)-N-(3,4-difluorophenyl)-5-hydroxy-N-((1S,2S)-2-hydroxycyclohexyl)-6-(hydroxymethyl)-3-methoxytetrahydro-2H-pyran-2-carboxamide] | 0.064 | 1.24
CO[C@@H]1[C@@H](n2cc(-c3cc(F)c(Cl)c(Cl)c3)nn2)[C@@H](O)[C@@H](CO)O[C@H]1C(=O)N(c1ccc2ncsc2c1)[C@H]1CCCC[C@@H]1O [Example 168, (2R,3R,4S,5R,6R)-N-(benzo[d]thiazol-6-yl)-4-(4-(3,4-dichloro-5-fluorophenyl)-1H-1,2,3-triazol-1-yl)-5-hydroxy-N-((1S,2S)-2-hydroxycyclohexyl)-6-(hydroxymethyl)-3-methoxytetrahydro-2H-pyran-2-carboxamide] | 0.025 | 0.672
CO[C@@H]1[C@@H](n2cc(-c3ccc(C)c(F)c3)nn2)[C@@H](O)[C@@H](CO)O[C@H]1C(=O)N(c1cc(Cl)cc(C#N)c1)[C@H]1CCCC[C@@H]1O [Example 170, (2R,3R,4S,5R,6R)-N-(3-chloro-5-cyanophenyl)-4-(4-(3-fluoro-4-methylphenyl)-1H-1,2,3-triazol-1-yl)-5-hydroxy-N-((1S,2S)-2-hydroxycyclohexyl)-6-(hydroxymethyl)-3-methoxytetrahydro-2H-pyran-2-carboxamide] | 0.018 | 0.569
CO[C@@H]1[C@@H](n2cc(-c3ccc(C)c(F)c3F)nn2)[C@@H](O)[C@@H](CO)O[C@H]1C(=O)N(c1cc(Cl)cc(C#N)c1)[C@H]1CCCC[C@@H]1O [Example 171, (2R,3R,4S,5R,6R)-N-(3-chloro-5-cyanophenyl)-4-(4-(2,3-difluoro-4-methylphenyl)-1H-1,2,3-triazol-1-yl)-5-hydroxy-N-((1S,2S)-2-hydroxycyclohexyl)-6-(hydroxymethyl)-3-methoxytetrahydro-2H-pyran-2-carboxamide] | 0.012 | 0.238
Cc1ccc(-c2cn([C@H]3[C@@H](O)[C@@H](CO)O[C@@H](C(=O)N(c4cc(Cl)cc(C#N)c4)[C@H]4CCCC[C@@H]4O)[C@@H]3OCC(=O)O)nn2)c(F)c1F [Example 172, 2-(((2R,3R,4S,5R,6R)-2-((3-chloro-5-cyanophenyl)((1S,2S)-2-hydroxycyclohexyl)carbamoyl)-4-(4-(2,3-difluoro-4-methylphenyl)-1H-1,2,3-triazol-1-yl)-5-hydroxy-6-(hydroxymethyl)tetrahydro-2H-pyran-3-yl)oxy)acetic acid] | 0.011 | 0.421
Cc1ccc(-c2cn([C@H]3[C@@H](O)[C@@H](CO)O[C@@H](C(=O)N(c4cc(Cl)cc(C#N)c4)[C@H]4CCCC[C@@H]4O)[C@@H]3OCC(=O)N3CCOCC3)nn2)c(F)c1F [Example 173, (2R,3R,4S,5R,6R)-N-(3-chloro-5-cyanophenyl)-4-(4-(2,3-difluoro-4-methylphenyl)-1H-1,2,3-triazol-1-yl)-5-hydroxy-N-((1S,2S)-2-hydroxycyclohexyl)-6-(hydroxymethyl)-3-(2-morpholino-2-oxoethoxy)tetrahydro-2H-pyran-2-carboxamide] | 0.009 | 0.509
COc1cc(F)c(F)cc1-c1cn([C@H]2[C@@H](O)[C@@H](CO)O[C@@H](C(=O)N(c3cc(Cl)cc(C#N)c3)[C@H]3CCCC[C@@H]3O)[C@@H]2OC)nn1 [Example 174, (2R,3R,4S,5R,6R)-N-(3-chloro-5-cyanophenyl)-4-(4-(4,5-difluoro-2-methoxyphenyl)-1H-1,2,3-triazol-1-yl)-5-hydroxy-N-((1S,2S)-2-hydroxycyclohexyl)-6-(hydroxymethyl)-3-methoxytetrahydro-2H-pyran-2-carboxamide] | 0.04 | 0.75
CO[C@@H]1[C@@H](n2cc(-c3ccc(Br)c(F)c3F)nn2)[C@@H](O)[C@@H](CO)O[C@H]1C(=O)N(c1cc(Cl)cc(C#N)c1)[C@H]1CCCC[C@@H]1O [Example 175, (2R,3R,4S,5R,6R)-4-(4-(4-bromo-2,3-difluorophenyl)-1H-1,2,3-triazol-1-yl)-N-(3-chloro-5-cyanophenyl)-5-hydroxy-N-((1S,2S)-2-hydroxycyclohexyl)-6-(hydroxymethyl)-3-methoxytetrahydro-2H-pyran-2-carboxamide] | 0.013 | 0.386
CO[C@@H]1[C@@H](n2cc(-c3ccc(Br)c(F)c3F)nn2)[C@@H](O)[C@@H](CO)O[C@H]1C(=O)N(c1cc(F)cc(C#N)c1)[C@H]1CCCC[C@@H]1O [Example 176, (2R,3R,4S,5R,6R)-4-(4-(4-bromo-2,3-difluorophenyl)-1H-1,2,3-triazol-1-yl)-N-(3-cyano-5-fluorophenyl)-5-hydroxy-N-((1S,2S)-2-hydroxycyclohexyl)-6-(hydroxymethyl)-3-methoxytetrahydro-2H-pyran-2-carboxamide] | 0.015 | 0.682
CO[C@@H]1[C@@H](n2cc(-c3ccc(Br)c(F)c3F)nn2)[C@@H](O)[C@@H](CO)O[C@H]1C(=O)N(c1cc(Cl)cc(Cl)c1)[C@H]1CCCC[C@@H]1O [Example 177, (2R,3R,4S,5R,6R)-4-(4-(4-bromo-2,3-difluorophenyl)-1H-1,2,3-triazol-1-yl)-N-(3,5-dichlorophenyl)-5-hydroxy-N-((1S,2S)-2-hydroxycyclohexyl)-6-(hydroxymethyl)-3-methoxytetrahydro-2H-pyran-2-carboxamide] | 0.013 | 0.852
